These are literature values, as cited in patent US20230142073A1 (priority 2020, published 2023).

SMILES strings stand for the structures. Read-outs that look alike come from different tables or passages of the source.

Data set [1] relates to SARS-CoV-2 infected patients presenting with Severe Acute Respiratory Distress Syndrome (SARDS). The conditions noted are these: 10 ppm NO inhaled; baseline 102.
Data set [2] deals with SARS-CoV-2 infected patients, exhibiting Acute Respiratory Distress Syndrome (ARDS). The conditions noted are these: iv 10 μg/kg/min, mean maintenance 1.65 μg/kg/min.
Data set [3] deals with Sars-Cov-2 ARDS patients. The conditions noted are these: iv 2 μg/kg/min; in the following 6 hours; 19 patients; baseline 79; p-value=0.001.
In data set [4] the test system is person with a SARS-CoV-2 infection and Severe Acute Respiratory Distress Syndrome (SARDS). The conditions noted are these: iv 4 μg/kg/min; for PaO2: baseline 63; for PaO2/FiO2: baseline 70.
In data set [5] the test system is human patients with a coronavirus (SARS-CoV-2) infection.
[6] abbreviates: 1 hour after almitrine infusion.
[7] abbreviates: 2 hours after almitrine infusion.
[8] abbreviates: 12 hours after almitrine infusion.
Where [9] appears, read: 10 patients, iv 4 then 12 μg/kg/min.

On to `[N]=O` [NO, Nitric Oxide], for which the “median PaO2/FiO2 after NO” value in data set [1] is 124 mmHg.
Turning to `C=CCNc1nc(NCC=C)nc(N2CCN(C(c3ccc(F)cc3)c3ccc(F)cc3)CC2)n1.CS(=O)(=O)O` [almitrine dimesylate, 6-[4-[bis(4-fluorophenyl)methyl]piperazin-1-yl]-2-N,4-N-bis(prop-2-enyl)-1,3,5-triazine-2,4-diamine methanesulfonic acid], in data set [2] (32 patients), the lower mortality is listed as 16% and the side-effects result was “no significant side-effects”. In addition, in data set [2] (32 patients, NO inhaled in 75% of cases), the “responders (PaO2 increase of more than 20%)” value was 66%. In data set [2] (responders), the “mean increase in PaO2” value is reported as 67%. For the same compound, the “median PaO2/FiO2 after almitrine” value in data set [3] is listed as 117 mmHg. Also, in data set [4] (setting [6]), the PaO2 is recorded as 67 mm Hg and the PaO2/FiO2 is on record as 84 mmHg. Also, in data set [4] (setting [7]), the PaO2 was 130 mm Hg and the PaO2/FiO2 is given as 216 mmHg. For the same compound, in data set [4] (setting [8]), the PaO2 was 170 mm Hg and the PaO2/FiO2 was 283 mmHg. In addition, in data set [5] (10 patients, 135 before almitrine, iv 4 then 12 μg/kg/min), the “median PaO2/FiO2 ratio after almitrine administration” value was 215 mmHg. Also, in data set [5] (10 patients, from 135 before to 215 after almitrine), the “increase of median PaO2/FiO2 ratio” value is listed as 80 mmHg. For the same compound, in data set [5] (setting [9]), the cardiac index result is “not affected” and the right atrial pressures result was “not affected”. Also, the “number of patients with increased PaO2/FiO2” value in data set [5] (out of 10 human patients (median age 70), iv 4 μg/kg/min for 30-45 min, then 12 μg/kg/min for 30-45 min, intubated and ventilated) is 8.
